Reference: patent publication US6969593B2, “Method for the selective survival or selective growth of a target cell by the use of a conjugate, its use in therapeutics and/or diagnostics and the preparation of said conjugate” (priority 2000, dated 2005)

Key:
Type in all cases: cell-based, Escherichia coli
[1] = test system: TG1-fd Bla I7; experiment: Experiments with selective cultures: mixed culture, colonies counted on Tet dishes; settings: t = 2 hours; for Bacteria.ml^−1 TG1-fd Bla 17 / % TG1-fd Bla 17: Table 1 results 1; for Bacteria.ml^−1 TG1-fd Bla 17 / Bacteria.ml^−1 TG1-fd Bla I7: complex + or − according to label; for Bacteria.ml^−1 TG1-fd Bla 17: t=0 1.58E+06; for % TG1-fd Bla 17 / % TG1-fd Bla I7: mixture with MM294-pET26b45; for % TG1-fd Bla 17: t=0 20.8%
Procedure: (§1) 5 ml (OD=1) of the TG1-fd Bla I7 and the MM294-pET26b45 cultures are centrifuged (4000 RPM, 5 minutes) and twice washed in LB for finally being resolved in 5 ml sterile LB. Two cultures are mixed. 1 ml of this culture is diluted in 9 ml LB (5 erlenmeyers in parallell) and the necessary quantity of the ternary complex or the conjugate is added. During one hour at 37° C. incubation takes place whereafter penicilline is introduced in this culture medium (see table above) and agitation is performed during two hours at 37° C.
(§2) Sampling is made at the start and the finish of the reaction which is diluted and put on Tet or Kan boxes. The incubation takes place all night at 37° C. Calculation of the colonies is made the morning after.
(§3) Mixtures have been made of bacteria TG1-fd Bla […] and MM294-pET26b45. These mixtures have been brought into contact with the ternary complex and incubated during one hour by 37° C. to allow the triple complex to be formed on the bacteria. After this incubation penicillin is added in the culture medium and cultures grown in shaking suspensions for two hours at 37° C. Subsequently, these mixtures were plated on Tet dishes and Kan dishes and incubated overnight at 37° C. The next day, the number of colonies was counted.
(§4) The inventors have also been working on the optimisation of the initial number added in the test of the different bacteria.

[2] = test system: MM294-pET26b45; experiment: Experiments with selective cultures: mixed culture, colonies counted on Kan dishes; settings: t = 2 hours, complex + or − according to label
Procedure: as §1, §2, §3, §4

[3] = test system: TG1-fd Bla I7; experiment: Spectrophotometric follow up of the cultures (optical density at 600 nm); settings: 200 and 800 mg.L^−1 of penicillin; with or without ternary complex according to label; 37° C.
Procedure: (§5) Cultures (15 ml, OD=1) of TG1-fd Bla I7 and of MM294-pET26b45 are centrifuged (4000 RPM, 5 minutes). The pellet is washed twice with LB and is resolved in 15 ml sterile LB. In all cases 1 ml of the culture is diluted in 9 ml LB (11 erlenmeyers). Then the necessary quantity of the triple complexes calculated for complete degradation of the penicillin in two hours incubation is added and inbucated one hour at 37° C. Then penicillin is introduced at the final concentrations as indicated in the table below and for two hours at 37° C.
(§6) A sample is made at the start and then every 30 minutes. The optical density is measured of the sample at 600 nm.
(§7) In the next step, the applicant determined the conditions where optimal measurements could be made. With the help of spectrophotometric techniques the evolution in the optical density of different cultures was followed. […]
(§8) These cultures were made in parallel with an increasing concentration of penicillin increasing in the culture medium from 0 mg.L^−1, 50 mg.L^−1, 100 mg.L^−1, 200 mg.L^−1, 400 mg.L^−1 to 800 mg.L^−1. The quantities of the ternary complex were calculated and adapted such that all the penicillin in the medium of culture were hydrolyzed in two hours. […]

[4] = test system: MM294-pET26b45; experiment: as above; settings: 200 and 800 mg.L^−1 of penicillin; with or without triple complex according to label; 37° C.
Procedure: as §5, §6, §7, §8

For `CC1(C)S[C@@H]2[C@H](NC(=O)Cc3ccccc3)C(=O)N2[C@H]1C(=O)O` [penicillin G], the “Bacteria.ml^−1 TG1-fd Bla 17” value ([1]; [Pen] 200 mg·L^−1) was 1 190 ppm, the “% TG1-fd Bla 17” value ([1]; [Pen] 200 mg·L^−1) was 15.8% and the “Bacteria.ml^−1 TG1-fd Bla 17” value ([1]; [Pen] 800 mg·L^−1) was 1 500 ppm. The “% TG1-fd Bla 17” value ([1]; [Pen] 800 mg·L^−1) was 8.9%, the “Bacteria.ml^−1 TG1-fd Bla I7” value ([1]; Table 2 results 1, [Pen] 200 mg·L^−1, t=0 2.05E+07) was 351.2 ppm and the “% TG1-fd Bla I7” value ([1]; Table 2 results 1, [Pen] 200 mg·L^−1, t=0 54.2%) was 50.3%. For the same compound, the “Bacteria.ml^−1 TG1-fd Bla I7” value ([1]; Table 2 results 1, [Pen] 800 mg·L^−1, t=0 2.05E+07) was 439.0 ppm, the “% TG1-fd Bla I7” value ([1]; Table 2 results 1, [Pen] 800 mg·L^−1, t=0 54.2%) was 44.1% and the “Bacteria.ml^−1 TG1-fd Bla I7” value ([1]; Table 2 results 2, [Pen] 200 mg·L^−1, t=0 1.37E+08) was 48.2 ppm. For the same compound, the “% TG1-fd Bla I7” value ([1]; Table 2 results 2, [Pen] 200 mg·L^−1, t=0 60.4%) was 47.1%, the “Bacteria.ml^−1 TG1-fd Bla I7” value ([1]; Table 2 results 2, [Pen] 800 mg·L^−1, t=0 1.37E+08) was 2.9 ppm and the “% TG1-fd Bla I7” value ([1]; Table 2 results 2, [Pen] 800 mg·L^−1, t=0 60.4%) was 6.9%. The “Bacteria.ml^−1 MM294-pET26b45” value ([2]; Table 1 results 1, [Pen] 200 mg·L^−1, t=0 6.00E+06) was 1 667 ppm, the “Bacteria.ml^−1 MM294-pET26b45” value ([2]; Table 1 results 1, [Pen] 800 mg·L^−1, t=0 6.00E+06) was 557 ppm and the “Bacteria.ml^−1 MM294-pET26b45” value ([2]; Table 2 results 1, [Pen] 200 mg·L^−1, t=0 1.73E+07) was 410.4 ppm. For the same compound, the “Bacteria.ml^−1 MM294-pET26b45” value ([2]; Table 2 results 1, [Pen] 800 mg·L^−1, t=0 1.73E+07) was 659.0 ppm, the “Bacteria.ml^−1 MM294-pET26b45” value ([2]; Table 2 results 2, [Pen] 200 mg·L^−1, t=0 9.00E+07) was 82.2 ppm and the “Bacteria.ml^−1 MM294-pET26b45” value ([2]; Table 2 results 2, [Pen] 800 mg·L^−1, t=0 9.00E+07) was 60.0 ppm. The “evolution of optical density of the culture during time” value [3] was “tendency to decrease” and the “evolution of optical density of the culture during time” value [4] was “tendency to decrease”.
